Data as given in patent publication US20060003027A1, “Composition and method for reducing side effects of indole-3-carbinol and derivatives” (priority 2004, published 2006).

Assays:
[1] = system: cervical or vaginal neoplasia; assay: Treatment of female patients with coccygeal-area pain and abnormal pap smear (pain, pap smear, biopsy); format: in vivo, human; conditions: I3C alone, 110 mg per dose twice daily; Example 1 patient
Method: A patient, and 110 lbs. in weight, has complained of pain in the area of the coccygeal vertebra, which may reflect cervical inflammation, and/or cervical or vaginal neoplasia.
(§1) This patient was administered a high dosage of I3C, specifically 110 mg/per dose, twice daily. […] A composition (composition 1) in accordance with the present invention was then given to this patient. Composition 1 is as set forth below:
Composition 2 in accordance with the present invention was administered to the patient. Composition 2 is as set forth below:
(§2) Composition 3 was then administered to this patient for a period of eight weeks.

mammary carcinogenesis = conditions: rat model; cited from earlier work
[2] = system: HPV-induced benign tumors of laryngeal tissue; conditions: mouse model; cited from earlier work
[3] = Side effects observed in treated patients (case reports); format: in vivo, human
Method: as §1, §2

SMILES: OCc1c[nH]c2ccccc12 [Composition I3C, Indole-3-carbinol]
- pain in the area of the coccygeal vertebra [1]: relief from the pain
- inhibition of mammary carcinogenesis (mammary carcinogenesis): effective in inhibiting mammary carcinogenesis
- growth of HPV-induced benign tumors of laryngeal tissue [2]: inhibits growth
- side effects experienced ([3]; I3C alone, 110 mg per dose twice daily, about a week, patient, 110 lbs): headache, dizziness and fatigue
- undesirable side effects ([3]; I3C at 200 mg/day and above 200 mg/day, some people of regular body weight): headache, dizziness, stomach disturbance, convulsion, vomiting, and fatigue
